Consider two compounds from ChEMBL document CHEMBL2057199, “Development of novel M1 antagonist scaffolds through the continued optimization of the MLPCN probe ML012” (Bioorg Med Chem Lett, 2012).

The target in data set [1] is T1, Muscarinic acetylcholine receptor M2 (Homo sapiens, UniProt P08172).
T1 sequence (P08172 whole entry): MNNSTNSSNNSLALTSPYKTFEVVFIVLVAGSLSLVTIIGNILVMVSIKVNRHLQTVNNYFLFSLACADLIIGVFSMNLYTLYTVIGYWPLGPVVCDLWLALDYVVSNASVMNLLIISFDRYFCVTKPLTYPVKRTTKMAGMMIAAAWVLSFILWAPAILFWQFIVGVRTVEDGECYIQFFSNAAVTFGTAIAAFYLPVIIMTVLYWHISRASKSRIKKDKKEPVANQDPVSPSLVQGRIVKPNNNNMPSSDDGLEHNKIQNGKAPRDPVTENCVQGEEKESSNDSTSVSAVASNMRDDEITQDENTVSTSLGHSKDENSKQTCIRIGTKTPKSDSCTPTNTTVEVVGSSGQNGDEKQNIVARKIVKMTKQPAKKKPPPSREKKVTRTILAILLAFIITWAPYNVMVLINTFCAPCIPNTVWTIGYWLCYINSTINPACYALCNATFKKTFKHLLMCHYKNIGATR
The data set is described as follows: Antagonist activity at human muscarinic M2 receptor assessed as inhibition of acetylcholine-induced calcium mobilization. The class given is functional.

In data set [2] the target is T2, Muscarinic acetylcholine receptor M1 (Homo sapiens) (UniProt P11229).
T2 sequence (whole entry): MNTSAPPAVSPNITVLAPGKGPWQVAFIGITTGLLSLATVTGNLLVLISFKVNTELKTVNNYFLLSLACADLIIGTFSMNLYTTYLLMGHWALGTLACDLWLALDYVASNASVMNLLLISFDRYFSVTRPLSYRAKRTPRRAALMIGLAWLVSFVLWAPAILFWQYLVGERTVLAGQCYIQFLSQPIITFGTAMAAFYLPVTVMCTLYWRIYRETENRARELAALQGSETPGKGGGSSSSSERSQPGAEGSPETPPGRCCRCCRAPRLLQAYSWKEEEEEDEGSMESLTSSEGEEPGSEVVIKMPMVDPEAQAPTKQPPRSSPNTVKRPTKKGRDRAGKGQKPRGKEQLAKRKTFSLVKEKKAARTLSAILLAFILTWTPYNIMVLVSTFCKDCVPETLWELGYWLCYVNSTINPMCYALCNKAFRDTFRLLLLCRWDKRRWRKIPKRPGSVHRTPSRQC
The data set can be described thus: Antagonist activity at human muscarinic M1 receptor assessed as rightward shift in acetylcholine concentration response curve. In kind it is functional.

Data set [3] addresses T2, Muscarinic acetylcholine receptor M1 (Homo sapiens). The data set can be described thus: Displacement of [3H]NMS from human muscarinic M1 receptor.
For data set [4] the target is unchanged. The data set is described as follows: Antagonist activity at human muscarinic M1 receptor expressed in CHO cells assessed as inhibition of acetylcholine-induced calcium mobilization at 30 uM measured after 15 mins by fluorescence analysis. The class given is functional, cell-based. More on the design: scale not given: the % may be the effect or the level left. (Calcium flux is commonly read through the fluorescence of an indicator in the cells.)

The target is the same in data set [5]. The data set is described as follows: (§1) Antagonist activity at human muscarinic M1 receptor expressed in CHO cells assessed as inhibition of acetylcholine-induced calcium mobilization by fluorescence analysis. The class given is functional, cell-based.
The target in data set [6] is T3, Muscarinic acetylcholine receptor M1 (Homo sapiens, UniProt P11229).
T3 sequence (P11229 whole entry): T2 sequence (whole entry)
The description is as §1. The settings on record: read-out: IC50. The class given is functional, cell-based.

A further data set has as its system Brain. The data set can be described thus: Fraction unbound in rat brain homogenate. The class given is ADME, tissue-based.
In a further data set the target is T4, Cytochrome P450 1A2 (Homo sapiens, UniProt P05177).
T4 sequence (P05177 whole entry): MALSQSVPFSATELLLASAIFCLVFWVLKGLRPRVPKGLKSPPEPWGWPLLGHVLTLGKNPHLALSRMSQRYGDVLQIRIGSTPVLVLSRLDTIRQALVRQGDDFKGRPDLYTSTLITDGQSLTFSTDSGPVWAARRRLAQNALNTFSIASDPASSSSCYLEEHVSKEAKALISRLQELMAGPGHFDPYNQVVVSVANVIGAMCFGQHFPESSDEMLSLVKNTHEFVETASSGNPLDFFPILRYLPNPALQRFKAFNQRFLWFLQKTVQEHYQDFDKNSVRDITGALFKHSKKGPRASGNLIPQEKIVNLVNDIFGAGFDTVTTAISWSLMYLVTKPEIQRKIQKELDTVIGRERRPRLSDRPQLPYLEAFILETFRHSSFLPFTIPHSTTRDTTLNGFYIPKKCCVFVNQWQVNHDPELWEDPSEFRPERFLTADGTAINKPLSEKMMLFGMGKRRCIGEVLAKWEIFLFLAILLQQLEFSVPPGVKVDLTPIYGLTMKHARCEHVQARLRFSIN
The data set is described as follows: Inhibition of CPY1A2.

A further data set addresses Cytochrome P450 3A4 (Homo sapiens, UniProt P08684). The data set can be described thus: Inhibition of CPY3A4.
A further data set addresses Cytochrome P450 2C9 (Homo sapiens, UniProt P11712). The data set is described as follows: Inhibition of CPY2C9.
The next data set deals with Cytochrome P450 2D6 (Homo sapiens, UniProt P10635). The data set can be described thus: Inhibition of CPY2D6.
Data set [7] in a line: Plasma clearance in iv dosed rat. The class given is ADME, organism-based.
Data set [8] has as its system Plasma. The data set can be described thus: Fraction unbound in human plasma. In kind it is ADME, cell-free.
The test system of data set [9] is Plasma. The data set can be described thus: Fraction unbound in rat plasma. In kind it is ADME, cell-free.
In data set [10] the target is T5, Muscarinic acetylcholine receptor M5 (Homo sapiens, UniProt P08912).
T5 sequence (P08912 whole entry): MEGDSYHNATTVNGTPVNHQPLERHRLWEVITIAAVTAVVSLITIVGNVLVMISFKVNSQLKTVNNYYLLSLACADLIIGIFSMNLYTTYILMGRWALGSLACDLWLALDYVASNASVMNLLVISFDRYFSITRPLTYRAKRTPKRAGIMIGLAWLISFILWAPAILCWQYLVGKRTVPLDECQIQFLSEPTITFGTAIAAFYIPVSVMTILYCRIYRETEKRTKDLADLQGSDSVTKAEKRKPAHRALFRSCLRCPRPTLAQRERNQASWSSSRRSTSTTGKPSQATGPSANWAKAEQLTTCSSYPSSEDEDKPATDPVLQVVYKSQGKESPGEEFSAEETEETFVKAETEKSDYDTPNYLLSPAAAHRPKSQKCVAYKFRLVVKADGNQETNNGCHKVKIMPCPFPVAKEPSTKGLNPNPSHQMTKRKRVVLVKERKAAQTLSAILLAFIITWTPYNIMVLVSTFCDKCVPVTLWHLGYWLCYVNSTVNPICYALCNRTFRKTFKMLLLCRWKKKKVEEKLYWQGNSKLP
The data set is described as follows: Antagonist activity at human muscarinic M5 receptor assessed as inhibition of acetylcholine-induced calcium mobilization. The class given is functional.

Data set [11] has as its target T6, Muscarinic acetylcholine receptor M4 (Homo sapiens, UniProt P08173).
T6 sequence (P08173 whole entry): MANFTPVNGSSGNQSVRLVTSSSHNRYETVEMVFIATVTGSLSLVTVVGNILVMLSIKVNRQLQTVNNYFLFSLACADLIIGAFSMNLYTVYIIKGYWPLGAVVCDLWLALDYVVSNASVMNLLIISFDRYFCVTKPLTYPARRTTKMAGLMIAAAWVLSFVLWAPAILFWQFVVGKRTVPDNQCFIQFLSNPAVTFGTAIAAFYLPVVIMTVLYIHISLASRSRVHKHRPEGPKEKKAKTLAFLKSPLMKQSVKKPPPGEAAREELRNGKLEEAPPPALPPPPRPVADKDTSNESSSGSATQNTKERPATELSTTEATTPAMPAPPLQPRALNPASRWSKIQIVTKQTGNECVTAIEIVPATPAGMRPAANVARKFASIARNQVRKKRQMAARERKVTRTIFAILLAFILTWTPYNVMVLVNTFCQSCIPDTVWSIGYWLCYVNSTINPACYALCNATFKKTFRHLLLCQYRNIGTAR
The data set can be described thus: Antagonist activity at human muscarinic M4 receptor assessed as inhibition of acetylcholine-induced calcium mobilization. The class given is functional.

Data set [12] concerns the target Muscarinic acetylcholine receptor M3 (Homo sapiens, UniProt P20309). The data set can be described thus: Antagonist activity at human muscarinic M3 receptor assessed as inhibition of acetylcholine-induced calcium mobilization. In kind it is functional.

SMILES strings stand for the structures. The source made the active and inactive calls. No cut-off for these calls is given here.

Chain of Muscarinic acetylcholine receptor M3 (P20309 whole entry): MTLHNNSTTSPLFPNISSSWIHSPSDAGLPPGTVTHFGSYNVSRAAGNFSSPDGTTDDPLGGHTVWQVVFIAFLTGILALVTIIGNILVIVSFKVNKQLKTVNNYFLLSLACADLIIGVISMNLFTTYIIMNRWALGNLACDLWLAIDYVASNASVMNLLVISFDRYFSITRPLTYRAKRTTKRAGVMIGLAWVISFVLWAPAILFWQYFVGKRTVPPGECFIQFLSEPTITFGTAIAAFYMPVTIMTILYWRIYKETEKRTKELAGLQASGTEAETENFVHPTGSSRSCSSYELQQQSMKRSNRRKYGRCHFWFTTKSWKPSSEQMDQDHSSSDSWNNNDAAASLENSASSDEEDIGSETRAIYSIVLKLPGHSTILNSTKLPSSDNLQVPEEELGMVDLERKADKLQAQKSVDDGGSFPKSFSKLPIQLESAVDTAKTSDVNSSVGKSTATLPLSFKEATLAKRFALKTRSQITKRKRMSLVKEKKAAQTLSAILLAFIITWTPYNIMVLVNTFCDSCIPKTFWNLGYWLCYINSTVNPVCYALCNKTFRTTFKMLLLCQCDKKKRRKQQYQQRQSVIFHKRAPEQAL
Chain of Cytochrome P450 3A4 (P08684 whole entry): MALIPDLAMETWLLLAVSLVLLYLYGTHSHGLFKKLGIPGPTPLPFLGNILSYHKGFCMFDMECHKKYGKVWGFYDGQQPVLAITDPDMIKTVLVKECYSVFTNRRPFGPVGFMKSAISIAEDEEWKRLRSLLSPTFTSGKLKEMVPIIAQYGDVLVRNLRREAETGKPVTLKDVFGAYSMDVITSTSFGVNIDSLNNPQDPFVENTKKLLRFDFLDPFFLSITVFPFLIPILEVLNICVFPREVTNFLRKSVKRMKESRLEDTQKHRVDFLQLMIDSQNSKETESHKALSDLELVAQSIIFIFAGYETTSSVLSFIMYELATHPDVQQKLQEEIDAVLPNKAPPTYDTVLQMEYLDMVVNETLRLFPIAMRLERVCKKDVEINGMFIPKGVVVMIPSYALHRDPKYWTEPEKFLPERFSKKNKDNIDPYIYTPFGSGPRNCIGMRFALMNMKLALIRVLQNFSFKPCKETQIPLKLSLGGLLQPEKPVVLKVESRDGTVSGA
Chain of Cytochrome P450 2C9 (P11712 whole entry): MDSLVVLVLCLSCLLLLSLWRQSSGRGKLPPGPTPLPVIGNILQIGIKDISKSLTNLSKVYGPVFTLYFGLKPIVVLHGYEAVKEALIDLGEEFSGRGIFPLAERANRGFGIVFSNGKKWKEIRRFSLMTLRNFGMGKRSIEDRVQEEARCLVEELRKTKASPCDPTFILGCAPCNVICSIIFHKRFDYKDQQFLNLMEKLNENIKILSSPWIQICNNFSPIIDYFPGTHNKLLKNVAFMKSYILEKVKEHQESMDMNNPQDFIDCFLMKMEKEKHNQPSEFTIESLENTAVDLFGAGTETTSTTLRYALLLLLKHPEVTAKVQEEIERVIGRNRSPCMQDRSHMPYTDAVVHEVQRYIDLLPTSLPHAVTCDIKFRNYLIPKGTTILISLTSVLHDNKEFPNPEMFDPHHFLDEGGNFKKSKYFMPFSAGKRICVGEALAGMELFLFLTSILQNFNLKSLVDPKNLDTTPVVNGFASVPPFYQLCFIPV
Chain of Cytochrome P450 2D6 (P10635 whole entry): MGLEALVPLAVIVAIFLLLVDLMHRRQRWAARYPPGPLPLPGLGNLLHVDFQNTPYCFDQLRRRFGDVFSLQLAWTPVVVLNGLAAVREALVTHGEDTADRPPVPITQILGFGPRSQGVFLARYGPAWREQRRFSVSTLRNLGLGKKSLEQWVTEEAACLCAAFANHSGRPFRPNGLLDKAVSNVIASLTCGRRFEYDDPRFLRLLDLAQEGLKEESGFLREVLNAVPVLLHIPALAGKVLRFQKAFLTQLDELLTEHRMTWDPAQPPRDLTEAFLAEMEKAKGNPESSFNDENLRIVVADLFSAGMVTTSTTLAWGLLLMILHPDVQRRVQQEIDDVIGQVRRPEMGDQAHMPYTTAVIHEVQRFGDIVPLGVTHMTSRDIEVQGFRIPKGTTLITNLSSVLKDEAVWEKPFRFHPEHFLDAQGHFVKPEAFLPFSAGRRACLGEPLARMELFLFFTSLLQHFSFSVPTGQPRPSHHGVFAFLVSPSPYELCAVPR

Consider `O=C(C1CN(S(=O)(=O)c2cccc3cnccc23)C1)N1CC2CN(c3ccncc3)CC2C1` (configuration not stated), for which the IC50 was > 10 µM in [1]; 0.23 µM in data set [6]; > 30 µM on Cytochrome P450 1A2; < 2.5 µM on Cytochrome P450 3A4; < 2.5 µM on Cytochrome P450 2C9; < 2.5 µM against Cytochrome P450 2D6. In addition, the IC50 in [10], in data set [11] and in [12] was > 10 µM in each case. Moreover, the outcome in data set [2] and in data set [3] was Active. Besides, the Activity in data set [4] is 2.8%. Besides, the inhibition entry in data set [5] is “Dose-dependent effect”. Further, the Fu in the data set with Brain came out at 0.08%; in the data set on Plasma [8] it was 0.9%; with Plasma [9], 0.6%. In data set [7], the clearance was determined as 68.6 mL/min/kg.

Take `O=C(C1CN(S(=O)(=O)c2cccc3cnccc23)C1)N1CCN(c2ccncc2)CC1`: the half-inhibitory concentration (IC50) in data set [1], in [10], in [11] and in [12] was > 10 µM each time. Further, the Activity in data set [4] was determined as 2.7%.

A word on the IC50: it is the concentration needed to halve the response being measured. What is called clearance is a measure of how efficiently the substance is removed, as volume per time.
